Consider 13 compounds from EP3959200B1, “NEW TRIAZOLE AND TRIAZOLOTHIADIAZINE DERIVATIVES EXERTING CYTOTOXIC AND APOPTOTIC EFFECTS ON A549 CELLS THROUGH AKT INHIBITION” (Anadolu Universitesi, priority 2020, dated 2022).

Data set [1] relates to kidney cancer (OU-31) cell line. Details: concentration or dose not given beside the values. The note with it: cited from earlier work.
Data set [2] concerns human lung adenocarcinoma (A549). The note with it: cited from earlier work.
In data set [3] the test system is breast adenocarcinoma (MCF-7). The note with it: cited from earlier work.
The subject of data set [4] is ovarian carcinoma (SKOV3). The note with it: cited from earlier work.
Data set [5] relates to A549 human lung adenocarcinoma cells. Put plainly: MTT cytotoxicity assay. It counts as cell-based. The note with it: for IC50: Homo sapiens, A549, MTT, 24 hours, read-out: IC50 values A549 cell line; for SI values: SI= IC50 for NIH/3T3 cell line / IC50 for A549 cell line. As to the method: (§1) In order to be used from this stock, the concentrations ranging from 0.12 to 500 µg/mL (with the highest DMSO ratio of 0.1%) were prepared.
A549 human lung adenocarcinoma cells (ATCC® CCL-185™) were grown in RPMI 1640 medium supplemented with 10% fetal bovine serum, 1% penicillin/streptomycin, in an incubator with carbon dioxide, in a culture medium at 37°C at 95% relative humidity.
(§2) MTT protocol was applied to determine cell viability. […] At the end of the incubation period, 20 µL of MTT dye (5 mg/mL) was added into each well, and the cells were incubated for an additional 4 hours at 37°C. After this process, MTT dye was removed from the cells, 200 µL of DMSO was added to each well and left to incubate for 10 minutes. Color change was detected at 540 nm in the ELx808-IU Bio-Tek plate reader. Inhibition% values were determined for each concentration of compounds. Inhibitory concentration 50 (IC50) values of the compounds were calculated by drawing a dose-response curve with their concentrations against these values. All experiments were carried out in triplicate. The results were given as mean±standard deviation. Inhibition% = 100−[(ODtest compound−ODblank/ODsolvent control−ODblank)×100] [formula]
Selective index (SI) values were determined using the following formula. SI […] IC50 for NIH/3T3 cell line/IC50 for A549 cell line [formula]
(In general: Tetrazolium dyes change colour on reduction, which living cells bring about.)

Data set [6] relates to NIH/3T3 mouse embryonic fibroblast cells. Put plainly: MTT cytotoxicity assay. It counts as cell-based. The note with it: Mus musculus, NIH3T3, 24 hours, read-out: IC50 values NIH/3T3 cell line. As to the method: as §1
NIH/3T3 mouse embryonic fibroblast cells (ATCC® CRL-1658™) were grown in DMEM medium supplemented with 10% fetal bovine serum, 1% penicillin/streptomycin, in an incubator with carbon dioxide, in a culture medium at 37°C at 95% relative humidity.
as §2

The next data set has as its system A549 cells. Put plainly: FITC Annexin V/PI apoptosis detection by flow cytometry. The note with it: for apoptosis induction: flow cytometry, result in words. The data set is classed as cell-based, human. As to the method:
The cells incubated with the compounds were centrifuged at 400 × g for 5 minutes in labeled tubes and washed twice with 1xPBS. Then, the cells were suspended in 1×Annexin-V binding solution at 1×10^6 cells/mL and 100 µL of this cell solution was taken and transferred to tubes. The cells were treated with 5 µL Annexin V FITC and 5 µL of propidium iodide (PI) dyes. Then, the cells were kept at room temperature in the dark for 15 minutes to allow the dye to bind. 400 µL of 1×Annexin-V binding cell solution was transferred to flow cytometry tubes and the amount of early and late apoptotic cells was determined relative to the positive control using the BD FACSAria flow cytometer FACSDiva version 6.1.1 software.
In general terms: Flow cytometry measures light scatter and fluorescence of single cells or particles in a stream.

A further data set relates to Akt. Description: Akt activity assay (Akt colorimetric in cell ELISA). It counts as cell-based, human. The note with it: for Inhibition % / IC50 value (Akt inhibitory effects): 24 hours; for Akt inhibitory effects: result in words. As to the method:
Briefly, the media was removed from the wells and 100 µL of 4% formaldehyde was added. The plate was incubated for 15 minutes in a fume hood. Formaldehyde was removed and the plate was washed twice with 1X […] solution (TBS) to 100 µL/well. 1X TBS was removed and 100 µL of 1X permeabilization buffer was added to each well and left at room temperature for 15 minutes. After removing the 1X permeabilization buffer, the wells were washed once with 100 µL of 1X TBS. 1X TBS was removed and 100 µL of the quenching solution was added to the wells and left at room temperature for 20 minutes. Then, this solution was removed. The plate was washed once with 1X TBS, 100 µL of blocking buffer was added to the wells and left at room temperature for 30 minutes. At the end of this period, the blocking buffer was removed and 50 µL of primary antibody was added to the wells. The plate was closed with a sealer and incubated overnight at 4°C. The primary antibody was removed and plate wells were washed three times with 100 µL of wash buffer. After removing the wash buffer, 100 µL of diluted horseradish peroxidase (HRP) conjugate was added to the wells. It was incubated for 30 minutes at room temperature. After removing this conjugate, 100 µL of 3,3',5,5'-tetramethylbenzidine (TMB) stop solution was added and absorbance was measured at 450 nm for 30 minutes. The experiment was carried out in triplicate. The values of the blank wells were subtracted from the values of the untreated control and treated cells. The Akt activity% was determined as the relative absorbance of treated versus untreated control cells.

In the next data set the test system is K562 cell line. The note with it: cited from earlier work.

Converted amounts (≈) assume the structure as drawn. A value given as a limit tells only on which side of the number the result lay.

For the compound `O=C(CSc1nnc2n1N=C(c1ccc(Br)cc1)CS2)c1ccc(Br)cc1` [1-(4-bromophenyl)-2-((6-(4-bromophenyl)-7H-[1,2,4]triazolo[3,4-b][1,3,4]thiadiazine-3-yl)thio)ethanone], in [1], the growth was 46.76% and the inhibition is on record as 53.24%.

For `O=C(CSc1nnc2n1N=C(c1ccc(F)cc1)CS2)c1ccc(F)cc1` [1-(4-fluorophenyl)-2-((6-(4-fluorophenyl)-7H-[1,2,4]triazolo[3,4-b][1,3,4]thiadiazine-3-yl)thio)ethanone], in [1], the growth is recorded as 47.42% and the inhibition is recorded as 52.58%.

Consider `COc1cc(-c2nnc3n2N=C(c2ccc(C)cc2)CS3)cc(OC)c1OC` [6-(p-tolyl)-3-(3,4,5-trimethoxyphenyl)-7H-[1,2,4]triazolo[3,4-b][1,3,4]thiadiazine], for which the IC50 in data set [2] was 600 ± 20 nM; in data set [3] it was 2750 ± 50 nM; in data set [4], 3430 ± 330 nM.

On to `O=[N+]([O-])c1ccc(C2=Nn3c(CCc4cccnc4)nnc3SC2)cc1` [Compound 2b, G-(4-Nitrophenyl)-3-(2-(pyridine-3-yl)ethyl)-7H-[1,2,4]triazolo[3,4-b] [1,3,4]thiadiazine], for which, in data set [5], the IC50 turned out to be 8.13 ± 0.81 µg/mL (≈ 22.2 µM) and the SI values is recorded as over 61.50. The IC50 in data set [6] was over 500 µg/mL. Further, in the data set on A549 cells (at IC50 concentrations), the “Early apoptotic cells %” value came to 2.4%, the “Late apoptotic cells %” value was found to be 2.4%, the Necrosis % is listed as 2.5% and the Viable cells% amounted to 94.6%. Further, in the data set on Akt (4.07 µg/mL), the Inhibition % was found to be 34.75±2.25%. The compound further gave an Inhibition % with Akt (8.13 µg/mL) of 33.16±14.16%. Besides, the Akt inhibitory effects entry with Akt is listed as “did not show significant Akt inhibitory effects”.

Turning to `Clc1ccc(C2=Nn3c(CCc4cccnc4)nnc3SC2)cc1` [Compound 2d, 6-(4-chlorophenyl)-3-(2-(pyridine-3-yl)ethyl)-7H-[1,2,4]triazolo[3,4-b][1,3,4]thiadiazine], in data set [5], the IC50 came out at 15.8 ± 0.35 µg/mL (≈ 44.3 µM) and the SI values is listed as over 31.75. In data set [6], the IC50 was over 500 µg/mL. In the data set with A549 cells (at IC50 concentrations), the “Early apoptotic cells %” value was 2.4%, the “Late apoptotic cells %” value was determined as 3.8%, the Necrosis % was 1.3% and the Viable cells% stood at 92.5%. Besides, the apoptosis induction result in the data set with A549 cells was “induce apoptosis”. For the same compound, the Inhibition % in the data set with Akt (3.94 µg/mL) is 80.33±19.71%. The same compound gave an Inhibition % in the data set with Akt (7.88 µg/mL) of 99.07±1.86%. This compound also registered an Inhibition % with Akt (15.75 µg/mL) of 90.41±7.17%. In addition, the “IC50 value (Akt inhibitory effects)” value in the data set with Akt was determined as 0.80 ± 0.10 µg/mL (≈ 2.25 µM).

In the case of `Fc1ccccc1NCn1nc(C23CC4CC(CC(C4)C2)C3)[nH]c1=S` [5-(adamantan-1-yl)-2-[((2-fluorophenyl)amino)methyl]-2,4-dihydro-3H-1,2,4-triazole-3-thione], in the data set on K562 cell line, the IC50 was 27700 ± 2460 nM.

Regarding `COc1cc([C@@H]2c3cc4c(cc3[C@@H](O[C@@H]3O[C@@H]5CO[C@@H](C)O[C@H]5[C@H](O)[C@H]3O)[C@H]3COC(=O)[C@H]23)OCO4)cc(OC)c1O` [etoposide], the IC50 was 2990 ± 220 nM in data set [2], 1890 ± 160 nM in [3] and 2300 ± 120 nM in data set [4].

As for `S=c1[nH]c(C23CC4CC(CC(C4)C2)C3)nn1CNc1ccccc1Cl` [5-(adamantan-1-yl)-2-[((2-chlorophenyl)amino)methyl]-2,4-dihydro-3H-1,2,4-triazole-3-thione], the IC50 in the data set with K562 cell line was 27000 ± 5350 nM.

Turning to `c1cncc(CCc2nnc3n2N=C(c2ccc4ccccc4c2)CS3)c1` [Compound 2j, 6-(Naphthalene-2-yl)-3-(2-(pyridine-3-yl)ethyl)-7H-[1,2,4]triazolo[3,4-b][1,3,4] thiadiazine], in [5], the IC50 is 4 µg/mL (≈ 10.8 µM) and the SI values was 1.67. For the same compound, the IC50 in data set [6] came to 6.66 ± 1.04 µg/mL (≈ 17.9 µM). Besides, in the data set on A549 cells (at IC50 concentrations), the “Early apoptotic cells %” value is on record as 1.0%, the “Late apoptotic cells %” value came out at 3.6%, the Necrosis % is recorded as 5.0% and the Viable cells% was found to be 90.3%. The same compound displayed an Inhibition % in the data set on Akt (2.0 µg/mL) of 17.80±2.08%. Also, in the data set on Akt (4.0 µg/mL), the Inhibition % amounted to 48.23±7.29%. In addition, the Akt inhibitory effects entry in the data set with Akt is given as “did not show significant Akt inhibitory effects”.

Regarding `Fc1ccc(C2=Nn3c(CCc4cccnc4)nnc3SC2)cc1` [Compound 2c, 6-(4-fluorophenyl)-3-(2-(pyridine-3-yl)ethyl)-7H-[1,2,4]triazolo[3,4-b][1,3,4]thiadiazine], in [5], the IC50 turned out to be 11.8 ± 2.25 µg/mL (≈ 34.9 µM) and the SI values was over 42.27. In data set [6], the IC50 is over 500 µg/mL. In the data set with A549 cells (at IC50 concentrations), the “Early apoptotic cells %” value stood at 1.8%, the “Late apoptotic cells %” value was 6.0%, the Necrosis % is reported as 4.6% and the Viable cells% came to 87.6%. Also, the apoptotic activity in the data set on A549 cells (at IC50 concentrations, early plus late apoptotic cells) worked out at 7.8%. Further, the apoptosis induction result in the data set with A549 cells is given as “induce apoptosis”. The compound further returned an Inhibition % in the data set with Akt (2.95 µg/mL) of 54.17±26.41%. Further, in the data set with Akt (5.92 µg/mL), the Inhibition % is on record as 73.98±8.55%. For the same compound, the Inhibition % in the data set with Akt (11.83 µg/mL) is reported as 82.60±2.88%. Also, the “IC50 value (Akt inhibitory effects)” value in the data set on Akt came to 2.95 ± 0.05 µg/mL (≈ 8.69 µM).

Regarding `Nn1c(CCc2cccnc2)nnc1SCC(=O)Nc1nc2ccccc2s1` [Compound 3b, 2-((4-Amino-5-(2-(pyridine-3-yl)ethyl)-4H-1,2,4-triazole-3-yl)thio)-N-(benzothiazole-2-yl)acetamide], in [5], the IC50 came out at 0.68 ± 0.18 µg/mL (≈ 1.65 µM) and the SI values worked out at 34.31. Also, the IC50 in [6] was 23.3 ± 6.11 µg/mL (≈ 56.7 µM). Also, in the data set with A549 cells (at IC50 concentrations), the “Early apoptotic cells %” value came out at 0.7%, the “Late apoptotic cells %” value is given as 3.0%, the Necrosis % was determined as 3.2% and the Viable cells% worked out at 93.1%. The compound also came in with an Inhibition % with Akt (0.98 µg/mL) of 14.58±4.29%. The compound further returned an Inhibition % in the data set with Akt (3.90 µg/mL) of 72.89±5.45%. Moreover, in the data set on Akt, the “IC50 value (Akt inhibitory effects)” value is 2.23 ± 0.12 µg/mL (≈ 5.42 µM).

For the compound `COc1ccc2nc(NC(=O)CSc3nnc(CCc4cccnc4)n3N)sc2c1` [Compound 3g, 2-((4-Amino-5-(2-(pyridine-3-yl)ethyl)-4H-1,2,4-triazole-3-yl)thio)-N-(6-methoxybenzothiazole-2-yl)acetamide], the IC50 in data set [5] amounted to 0.48 ± 0.03 µg/mL (≈ 1.09 µM). For the same compound, the IC50 in [6] is over 500 µg/mL. In the data set with A549 cells (at IC50 concentrations), the “Early apoptotic cells %” value worked out at 0.9%, the “Late apoptotic cells %” value is 5.5%, the Necrosis % came to 9.1% and the Viable cells% worked out at 84.5%. Moreover, in the data set with A549 cells, the apoptosis induction result is recorded as “induce apoptosis”. Further, the Inhibition % in the data set with Akt (1.95 µg/mL) came out at 26.42±4.59%. For the same compound, the Inhibition % with Akt (3.90 µg/mL) amounted to 88.87±5.31%. Also, in the data set with Akt, the “IC50 value (Akt inhibitory effects)” value is 2.60 ± 0.10 µg/mL (≈ 5.89 µM).

Turning to `Cc1ccccc1NCn1nc(C23CC4CC(CC(C4)C2)C3)[nH]c1=S` [5-(adamantan-1-yl)-2-[(o-tolylamino)methyl]-2,4-dihydro-3H-1,2,4-triazole-3-thione], the IC50 in the data set on K562 cell line is 25400 ± 890 nM.

In general, inhibition refers to the share of the control response that was lost under treatment.
